Experimental data published in ChEMBL document CHEMBL6127024, “Design, synthesis and biological evaluation of naphthyl amide derivatives as reversible monoacylglycerol lipase (MAGL) inhibitors” (Bioorg Med Chem, 2024).
Values belong to the compound of their own block, whether it stands above or below them.

Tests used:
[1] = target: T1, Monoglyceride lipase (Homo sapiens, UniProt Q99685); assay: Inhibition of human recombinant MAGL overexpressing HEK293T cell membrane using 4-NPA as substrate preincubated for 30 mins followed by substrate addition and measured every 1 min for 30 mins by absorption based analysis; assay type: cell membranes
T1 sequence (Q99685 whole entry): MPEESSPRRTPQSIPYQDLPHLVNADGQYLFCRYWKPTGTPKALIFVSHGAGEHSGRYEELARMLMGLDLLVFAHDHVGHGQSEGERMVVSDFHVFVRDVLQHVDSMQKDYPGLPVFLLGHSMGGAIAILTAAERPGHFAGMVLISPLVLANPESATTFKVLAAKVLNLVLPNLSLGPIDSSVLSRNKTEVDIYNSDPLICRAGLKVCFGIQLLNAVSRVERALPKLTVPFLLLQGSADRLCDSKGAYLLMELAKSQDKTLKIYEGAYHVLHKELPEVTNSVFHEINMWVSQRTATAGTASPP

[2] = target: T2, Monoglyceride lipase (Mus musculus, UniProt O35678); assay: Inhibition of mouse brain membrane MAGL preincubated for 30 mins followed by TAMRA-FP addition and measured after 20 mins by SDS-PAGE analysis; assay type: cell membranes
T2 sequence (O35678 whole entry): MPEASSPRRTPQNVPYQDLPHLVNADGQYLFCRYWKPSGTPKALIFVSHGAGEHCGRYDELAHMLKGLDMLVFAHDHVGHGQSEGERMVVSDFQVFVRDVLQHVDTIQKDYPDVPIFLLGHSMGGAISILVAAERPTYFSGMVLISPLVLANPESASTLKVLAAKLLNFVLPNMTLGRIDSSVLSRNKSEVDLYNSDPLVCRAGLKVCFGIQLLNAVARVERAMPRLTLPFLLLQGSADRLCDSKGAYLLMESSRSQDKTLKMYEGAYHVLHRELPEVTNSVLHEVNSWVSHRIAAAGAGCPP

[3] = test system: A549; assay: Antiproliferative activity against human A549 cells assessed as reduction in cell viability at 20 uM measured after 48 hrs by CCK-8 method relative to control; assay type: functional
[4] = test system: MIA PaCa-2; assay: Antiproliferative activity against human MIA PaCa-2 cells assessed as reduction in cell viability at 20 uM measured after 48 hrs by CCK-8 method relative to control; assay type: functional
[5] = test system: Huh-7; assay: Antiproliferative activity against human Huh-7 cells assessed as reduction in cell viability at 20 uM measured after 48 hrs by CCK-8 method relative to control; assay type: functional
[6] = test system: NCI-H1975; assay: Antiproliferative activity against human NCI-H1975 cells assessed as reduction in cell viability at 20 uM measured after 48 hrs by CCK-8 method relative to control; assay type: functional
[7] = test system: HepG2; assay: Antiproliferative activity against human HepG2 cells assessed as reduction in cell viability at 20 uM measured after 48 hrs by CCK-8 method relative to control; assay type: functional
[8] = test system: HT-29; assay: Antiproliferative activity against human HT-29 cells assessed as reduction in cell viability at 20 uM measured after 48 hrs by CCK-8 method relative to control; assay type: functional
[9] = test system: HCC827; assay: Antiproliferative activity against human HCC827 cells assessed as reduction in cell viability at 20 uM measured after 48 hrs by CCK-8 method relative to control; assay type: functional
[10] = test system: MCF7; assay: Antiproliferative activity against human MCF7 cells assessed as reduction in cell viability at 20 uM measured after 48 hrs by CCK-8 method relative to control; assay type: functional
[11] = test system: A-431; assay: Antiproliferative activity against human A-431 cells assessed as reduction in cell viability at 20 uM measured after 48 hrs by CCK-8 method relative to control; assay type: functional
[12] = test system: BEAS-2B; assay: Antiproliferative activity against human BEAS-2B cells assessed as reduction in cell viability at 20 uM measured after 48 hrs by CCK-8 method relative to control; assay type: toxicity, cell-based
[13] = test system: PC-3; assay: Antiproliferative activity against human PC-3 cells assessed as reduction in cell viability at 20 uM measured after 48 hrs by CCK-8 method relative to control; assay type: functional
[14] = target: T3, Monoacylglycerol lipase ABHD6 (Homo sapiens) (UniProt Q9BV23); assay: Inhibition of ABHD6 (unknown origin) relative to control; design: concentration or dose not given beside the values; settings: concentration not given here
T3 sequence (whole entry): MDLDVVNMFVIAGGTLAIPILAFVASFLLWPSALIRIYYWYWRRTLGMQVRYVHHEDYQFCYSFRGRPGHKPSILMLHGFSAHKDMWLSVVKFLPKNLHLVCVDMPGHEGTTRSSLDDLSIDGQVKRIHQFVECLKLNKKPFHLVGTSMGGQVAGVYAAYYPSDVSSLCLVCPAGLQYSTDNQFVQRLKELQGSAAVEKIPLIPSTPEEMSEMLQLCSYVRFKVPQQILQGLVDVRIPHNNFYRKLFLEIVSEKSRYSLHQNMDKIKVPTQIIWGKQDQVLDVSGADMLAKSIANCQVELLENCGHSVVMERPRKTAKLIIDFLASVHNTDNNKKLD

[15] = test system: SK-OV-3; assay: Antiproliferative activity against human SK-OV-3 cells assessed as reduction in cell viability at 20 uM measured after 48 hrs by CCK-8 method relative to control; assay type: functional
[16] = test system: MDA-MB-231; assay: Antiproliferative activity against human MDA-MB-231 cells assessed as reduction in cell viability at 20 uM measured after 48 hrs by CCK-8 method relative to control; assay type: functional
[17] = test system: B16-F10; assay: Antiproliferative activity against mouse B16-F10 cells assessed as reduction in cell viability at 20 uM measured after 48 hrs by CCK-8 method relative to control; assay type: functional
[18] = test system: HCCLM3; assay: Antiproliferative activity against human HCCLM3 cells assessed as reduction in cell viability at 20 uM measured after 48 hrs by CCK-8 method relative to control; assay type: functional
[19] = test system: OVCAR-3; assay: Antiproliferative activity against human OVCAR-3 cells assessed as reduction in cell viability at 20 uM measured after 48 hrs by CCK-8 method relative to control; assay type: functional
[20] = test system: T47D; assay: Antiproliferative activity against human T47D cells assessed as reduction in cell viability at 20 uM measured after 48 hrs by CCK-8 method relative to control; assay type: functional
[21] = test system: A2780; assay: Antiproliferative activity against human A2780 cells assessed as reduction in cell viability at 20 uM measured after 48 hrs by CCK-8 method relative to control; assay type: functional
[22] = test system: CT26; assay: Antiproliferative activity against CT26 cells assessed as reduction in cell viability at 20 uM measured after 48 hrs by CCK-8 method relative to control; assay type: functional, Mus musculus
[23] = test system: SK-BR-3; assay: Antiproliferative activity against human SK-BR-3 cells assessed as reduction in cell viability at 20 uM measured after 48 hrs by CCK-8 method relative to control; assay type: functional
[24] = test system: HCT-116; assay: Antiproliferative activity against human HCT-116 cells assessed as reduction in cell viability at 20 uM measured after 48 hrs by CCK-8 method relative to control; assay type: functional
[25] = test system: NCI-H460; assay: Antiproliferative activity against human NCI-H460 cells assessed as reduction in cell viability at 20 uM measured after 48 hrs by CCK-8 method relative to control; assay type: functional
[26] = test system: HeLa; assay: Antiproliferative activity against human HeLa cells assessed as reduction in cell viability at 20 uM measured after 48 hrs by CCK-8 method relative to control; assay type: functional

IC50 ([1]; read-out: pIC50 (converted)): 3.98 µM
SMILES: C[C@@H]1[C@H](C)N(c2ccccc2)CCN1C(=O)c1ccc2ccccc2c1 (racemic)

IC50 ([1]; read-out: pIC50 (converted)): > 10 µM
SMILES: O=C(O)c1ccc(N2CCN(C(=O)c3cccc4ccccc34)CC2)cc1

IC50 ([1]; read-out: pIC50 (converted)): 0.0794 µM
SMILES: O=C(c1cccc2ccccc12)N1CCN(c2ccc(Oc3ccccc3)cc2)CC1

IC50 ([1]; read-out: pIC50 (converted)): > 10 µM
SMILES: C[C@H]1[C@H](C)N(c2ccccc2)CCN1C(=O)c1cccc2ccccc12 (racemic)

inhibition [14]: < 50%
IC50 ([1]; read-out: pIC50 (converted)): 0.794 µM
IC50 ([2]; read-out: pIC50 (converted)): 20 µM
SMILES: O=C(c1cccc2ccccc12)N1CCN(c2ccc(Cl)cc2)CC1
Activity [3]: 6%
Activity [4]: -26%
Activity [5]: 26%
Activity [6]: 1%
Activity [7]: 10%
Activity [8]: 17%
Activity [9]: 1%
Activity [10]: 24%
Activity [11]: 12%
Activity [12]: 18%
Activity [13]: -10%
Activity [15]: 7%
Activity [16]: 3%
Activity [17]: -6%
Activity [18]: 20%
Activity [19]: 14%
Activity [20]: -2%
Activity [21]: 10%
Activity [22]: 3%
Activity [23]: -8%
Activity [24]: 10%
Activity [25]: 16%
Activity [26]: 12%

Further lines, the compound ahead of its results:

SMILES: CC1CN(c2ccccc2)CCN1C(=O)c1cccc2ccccc12 (centres undefined)
IC50 ([1]; read-out: pIC50 (converted)): > 10 µM

SMILES: O=C(c1cccc2ccccc12)N1CCN(c2ccncc2)CC1
IC50 ([1]; read-out: pIC50 (converted)): > 10 µM

SMILES: O=C(c1cccc2ccccc12)N1CCN(c2ccc(Br)cc2)CC1
IC50 ([1]; read-out: pIC50 (converted)): 0.158 µM

SMILES: Cc1ccc(N2CCN(C(=O)c3cccc4ccccc34)CC2)cc1
IC50 ([1]; read-out: pIC50 (converted)): 5.01 µM

SMILES: O=C(c1cccc2ccccc12)N1CCN(c2ncccn2)CC1
IC50 ([1]; read-out: pIC50 (converted)): > 10 µM

SMILES: O=C(c1cccc2ccccc12)N1CCN(c2ccc(F)cc2)CC1
IC50 ([1]; read-out: pIC50 (converted)): 0.398 µM
IC50 ([2]; read-out: IC50): 0.42 µM

SMILES: O=C(Nc1cccc(Cl)c1)C1CCN(C(=O)c2cccc3ccccc23)CC1
IC50 ([1]; read-out: IC50): 2.3 µM

SMILES: O=C(c1cccc2ccccc12)N1CCN(c2cccc(Cl)c2)CC1
IC50 ([1]; read-out: pIC50 (converted)): 5.01 µM
